# Literature values, collected in patent US8974824B2, “Lanthanum composition” (Mylan Laboratories Ltd., priority 2008, dated 2015).
# Conditions: pH range of 3 to 5 in gastric fluid; Lanthanum in two-fold molar excess to phosphate
smiles,measurement,value
[La] [Lanthanum],available phosphate bound,approximately 97%
